Tests used:
[1] = target: T1, NAD(P)-dependent oxidoreductase HS5.17 (CDP-6-D-glucitol synthase) (Campylobacter jejuni, UniProt A0A0U3AP28); assay: X-ray crystal structure, […] Å; type: binding; conditions: tag-free enzyme; ternary complex with NADP(H); pH 9.0
T1 construct: full-length, N-terminal His6 tag (pET-28a), E. coli expression; tag removed by TEV for the 8V4G crystals, tag kept for 8V4H; dimer

[2] = target: T1, NAD(P)-dependent oxidoreductase HS5.17 (CDP-6-D-glucitol synthase); assay: X-ray crystal structure, […] Å; type: binding; conditions: tagged enzyme; crystallized with NADP(H), which was not observed; pH 8.0
[3] = target: the molecule itself; assay: crystal structure; tag-free enzyme crystallized with 5 mM CDP and 5 mM NADP(H), PEG 8000, hexyleneglycol, 100 mM CHES pH 9.0; 2.0 Å; dimer in the asymmetric unit
[4] = target: the molecule itself; assay: crystal structure; tagged enzyme crystallized with 5 mM CDP-6-D-glucitol and 5 mM NADP(H), PEG 8000, 200 mM LiCl, 100 mM HEPPS pH 8.0; 2.2 Å; dimer in the asymmetric unit

For `Nc1ccn([C@@H]2O[C@H](COP(=O)(O)OP(=O)(O)O)[C@@H](O)[C@H]2O)c(=O)n1` [CDP], the “X-ray crystal structure, 2.0 Å” value [1] was “The first structure determined of the oxidoreductase was that in complex with NADP(H) and CDP”.

`Nc1ccn([C@@H]2O[C@H](COP(=O)(O)OP(=O)(O)OC[C@@H](O)[C@@H](O)[C@H](O)[C@@H](O)CO)[C@@H](O)[C@H]2O)c(=O)n1` [compound 3, CDP-6-D-glucitol] was tested, and the “X-ray crystal structure, 2.2 Å” value [2] was “The electron density was unambiguous for the CDP-6-D-glucitol ligands in both subunits”.

B1: NAD(P)-dependent oxidoreductase (HS5.17) from C. jejuni serotype HS:5, tag-free (enzyme, Campylobacter jejuni serotype HS:5)
chain: MNEILKKRLKLLKNNFGTHINKIANKKILITGANGYIGSILTLILHGNAKLYCLVRNKDKMIDRFQEICGDIDKIDIYEDLYKIQDKIDIVIHCAAPTQSDFFIENPIDTVDIIYTNTKNILDFSKKNNVEKIIFLSTMEIYGDVIGDNIVEDDIGKFSVTNIRNSYPLAKQISEFMVHSYSKKYSLSTAIVRLTQAIGPTAQINDNRVYMDFIRSAIKKSQITLFTKGETKREYIDVFDVATAIIFVMCEKKMFEIYNISNPNIFISIYDLAKTISAKLNVQVVFDLQRDTSQYLPSFSRRLNSKKIYQLGWTPLFDLNQSLDDMIKYIKEVNE
notes: putative NAD(P)-oxidoreductase HS5.17 of Campylobacter jejuni serotype HS:5 (ATCC 43433), UniProt A0A0U3AP28; gene synthesized and codon-optimized, in pET-28a(+) between NdeI and XhoI; electron density seen from Met 1 to Asn 334; His 0 left over from the purification tag; Crystallized with CDP and NADP(H) (PDB 8V4G); also called CDP-6-D-glucitol synthase; nucleotide sugar reductase; source: E. …
In the case of B1, the “stoichiometry N” value [3] is reported as 2.

B2: NAD(P)-dependent oxidoreductase (HS5.17) from C. jejuni serotype HS:5, N-terminally histidine-tagged (enzyme, Campylobacter jejuni serotype HS:5)
chain: MNEILKKRLKLLKNNFGTHINKIANKKILITGANGYIGSILTLILHGNAKLYCLVRNKDKMIDRFQEICGDIDKIDIYEDLYKIQDKIDIVIHCAAPTQSDFFIENPIDTVDIIYTNTKNILDFSKKNNVEKIIFLSTMEIYGDVIGDNIVEDDIGKFSVTNIRNSYPLAKQISEFMVHSYSKKYSLSTAIVRLTQAIGPTAQINDNRVYMDFIRSAIKKSQITLFTKGETKREYIDVFDVATAIIFVMCEKKMFEIYNISNPNIFISIYDLAKTISAKLNVQVVFDLQRDTSQYLPSFSRRLNSKKIYQLGWTPLFDLNQSLDDMIKYIKEVNE
notes: putative NAD(P)-oxidoreductase HS5.17 of Campylobacter jejuni serotype HS:5 (ATCC 43433), UniProt A0A0U3AP28; gene synthesized and codon-optimized, in pET-28a(+) between NdeI and XhoI; electron density continuous from Met 1 to Asn 334, tag seen from Glu (-7) to Met 1 in Subunit B; Crystallized with CDP-6-D-glucitol (PDB 8V4H); also called CDP-6-D-glucitol synthase; nucleotide sugar reductase; …
In the case of B2, the “stoichiometry N” value [4] is reported as 2.
